Results as given in the CheMixHub drug solubility set.

Experiment: xn = mol fraction of the nth substance listed, in the solute-free solvent

O=c1cc(CBr)c2ccccc2[nH]1 + CCCO + O
solubility (g/100 g solution)
Conditions	278.15 K	283.15 K	288.15 K	293.15 K	298.15 K	303.15 K	308.15 K	313.15 K	318.15 K
x2 = 0.03225	0.0181	0.0232	0.0292	0.0365	0.0451	0.0563	0.0686	0.0826	0.0993
x2 = 0.06974	0.0316	0.038	0.0464	0.0561	0.0674	0.0807	0.0957	0.112	0.131
x2 = 0.1139	0.0465	0.0552	0.0643	0.0756	0.0895	0.104	0.119	0.138	0.157
x2 = 0.1666	0.0629	0.0722	0.084	0.096	0.11	0.125	0.142	0.159	0.18
x2 = 0.2307	0.0788	0.0907	0.102	0.115	0.131	0.146	0.164	0.181	0.202
x2 = 0.3103	0.0908	0.103	0.115	0.13	0.144	0.161	0.18	0.198	0.218
x2 = 0.4117	0.0987	0.11	0.124	0.14	0.155	0.172	0.189	0.207	0.229
x2 = 0.5454	0.103	0.114	0.128	0.141	0.156	0.173	0.189	0.209	0.228
x2 = 0.7297	0.102	0.112	0.124	0.138	0.151	0.166	0.183	0.2	0.217

CC1=NNC(=O)N(N=Cc2cccnc2)C1 + CN(C)C=O + CC(C)O
solubility (g/100 g solution)
Conditions	278.15 K	283.15 K	288.15 K	293.15 K	298.15 K	303.15 K	308.15 K	313.15 K	318.15 K
x2 = 0.1705	0.264	0.304	0.352	0.405	0.466	0.532	0.612	0.697	0.796
x2 = 0.354	0.455	0.512	0.588	0.68	0.777	0.896	1.02	1.15	1.3
x2 = 0.5522	0.614	0.694	0.802	0.91	1.04	1.18	1.33	1.5	1.69
x2 = 0.7668	0.771	0.871	0.998	1.13	1.29	1.47	1.65	1.85	2.1

O=C1C=CC(=O)N1c1ccccc1Br + CN1CCCC1=O + O
solubility (g/100 g solution)
Conditions	278.15 K	283.15 K	288.15 K	293.15 K	298.15 K	303.15 K	308.15 K	313.15 K	318.15 K	323.15 K
x2 = 0.0198	0.759	0.975	1.23	1.5	1.9	2.31	2.81	3.43	4.09	4.91
x2 = 0.04347	2.17	2.74	3.4	4.11	5.08	6.17	7.35	8.81	10.3	12.2
x2 = 0.07228	4.95	6.03	7.43	8.92	10.6	12.4	14.7	17.2	19.7	22.4
x2 = 0.1081	8.04	9.64	11.7	13.7	16.3	18.8	21.8	24.8	28	31.5
x2 = 0.1538	12.4	14.7	17.1	20	22.9	26.2	29.7	33.3	36.9	40.5
x2 = 0.2143	16.7	19.8	22.4	25.9	29.3	33.2	37	40.7	44.8	48.7
x2 = 0.2979	21.5	24.7	28.1	31.6	35.2	39.1	43.5	47.2	51.2	55.1
x2 = 0.421	24.7	28.2	31.9	35.7	40	44.2	48.6	52.7	56.9	60.9
x2 = 0.6207	26.4	29.9	34.1	38.1	42	46.6	50.6	55.1	59.5	63.9

CC(C)C(=O)Nc1ccc([N+](=O)[O-])c(C(F)(F)F)c1 + CC#N + O
solubility (g/100 g solution)
Conditions	278.15 K	283.15 K	288.15 K	293.15 K	298.15 K	303.15 K	308.15 K	313.15 K	318.15 K	323.15 K
x2 = 0.04651	0.0051	0.007	0.00931	0.0126	0.0169	0.0223	0.0298	0.0389	0.0503	0.0645
x2 = 0.0989	0.0498	0.0667	0.0861	0.112	0.148	0.193	0.248	0.313	0.402	0.508
x2 = 0.1583	0.303	0.387	0.487	0.609	0.767	0.951	1.17	1.44	1.74	2.11
x2 = 0.2264	1.08	1.36	1.68	2.08	2.57	3.16	3.86	4.68	5.62	6.78
x2 = 0.3051	3.19	3.94	4.76	5.74	6.94	8.26	9.78	11.5	13.6	15.8
x2 = 0.397	6.71	8.14	9.68	11.6	13.8	16.2	19.1	22.2	25.3	28.7
x2 = 0.506	12.4	14.9	17.7	20.4	23.6	27.3	31.1	35.1	39.3	43.6
x2 = 0.6372	18.2	21.8	25.4	29.4	33.6	38	42.9	47.8	52.8	57.8
x2 = 0.798	24.1	28.7	33.3	38	43.2	48.7	54	59.6	64.5	69.8

c1ccc2c(c1)CCc1ccccc1N2 + CC(C)O + O
solubility (g/100 g solution)
Conditions	283.15 K	288.15 K	293.15 K	298.15 K	303.15 K	308.15 K	313.15 K	318.15 K	323.15 K	328.15 K
x2 = 0.03176	0.0176	0.0251	0.0346	0.0488	0.0604	0.0841	0.111	0.148	0.194	0.252
x2 = 0.0697	0.0729	0.101	0.136	0.186	0.24	0.32	0.411	0.527	0.674	0.851
x2 = 0.1134	0.12	0.164	0.22	0.296	0.38	0.499	0.636	0.808	1.02	1.28
x2 = 0.1667	0.119	0.156	0.212	0.286	0.384	0.504	0.625	0.779	0.979	1.22
x2 = 0.2299	0.126	0.162	0.214	0.281	0.369	0.484	0.601	0.762	0.947	1.18
x2 = 0.3101	0.114	0.153	0.205	0.27	0.348	0.452	0.575	0.726	0.915	1.14
x2 = 0.4103	0.132	0.176	0.237	0.308	0.396	0.511	0.648	0.814	1.02	1.27
x2 = 0.5463	0.168	0.221	0.295	0.38	0.487	0.622	0.771	0.958	1.18	1.47
x2 = 0.7321	0.172	0.219	0.296	0.374	0.48	0.613	0.778	0.975	1.22	1.51

Nc1cccc2c1CN(C1CCC(=O)NC1=O)C2=O (stereo not drawn) + CO + CCOC(C)=O
solubility (g/100 g solution)
Conditions	273.15 K	278.15 K	283.15 K	288.15 K	293.15 K	298.15 K	303.15 K	308.15 K	313.15 K	318.15 K
x2 = 0.4074	0.261	0.29	0.318	0.352	0.389	0.429	0.475	0.525	0.581	0.642
x2 = 0.647	0.353	0.398	0.443	0.489	0.536	0.592	0.648	0.714	0.786	0.863
x2 = 0.8048	0.354	0.393	0.437	0.491	0.546	0.608	0.679	0.76	0.852	0.952
x2 = 0.9166	0.352	0.385	0.426	0.481	0.536	0.599	0.67	0.755	0.854	0.959

O=c1cc(CBr)c2ccccc2[nH]1 + CCO + O
solubility (g/100 g solution)
Conditions	278.15 K	283.15 K	288.15 K	293.15 K	298.15 K	303.15 K	308.15 K	313.15 K	318.15 K
x2 = 0.04165	0.0134	0.0174	0.023	0.0295	0.038	0.0476	0.0598	0.0753	0.0924
x2 = 0.08908	0.0233	0.0297	0.037	0.0455	0.0569	0.0694	0.0854	0.104	0.123
x2 = 0.1436	0.0341	0.042	0.0509	0.0622	0.075	0.0906	0.106	0.127	0.151
x2 = 0.2068	0.0469	0.0559	0.0666	0.0787	0.0931	0.11	0.128	0.148	0.172
x2 = 0.2812	0.0609	0.0715	0.0837	0.0964	0.112	0.13	0.148	0.168	0.193
x2 = 0.3698	0.0732	0.0845	0.0974	0.111	0.128	0.145	0.163	0.184	0.209
x2 = 0.4772	0.0832	0.0948	0.109	0.123	0.138	0.157	0.176	0.196	0.221
x2 = 0.6101	0.0917	0.103	0.116	0.131	0.147	0.164	0.182	0.202	0.224
x2 = 0.7788	0.0963	0.108	0.12	0.134	0.15	0.165	0.182	0.201	0.219
